Experimental data taken from the supplement of paper PMC10307832.

Experiments:
Assay in all cases: relative viability (nuclei count vs DMSO), 5 days (fraction); higher = more cells survive
LC-2-ad = system: LC-2-ad
Procedure, shortened: (§1)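 Each reported value is a median over duplicate plates. It expresses relative viability: treated-well nuclei count divided by vehicle-well nuclei count. Lung cancer cell lines in 1536-well plates were dosed by pin tool a day after seeding, alone with one drug or with a fixed anchor-drug dose plus five library-drug doses (not always all listed) in √10 steps, and nuclei were counted after 5 days.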

NCI-H1666 = system: NCI-H1666
Procedure, shortened: as §1

LCLC-97TM1 = system: LCLC-97TM1
Procedure, shortened: as §1

NCI-H23 = system: NCI-H23
Procedure, shortened: as §1

NCI-H520 = system: NCI-H520
Procedure, shortened: as §1

HCC-827 = system: HCC-827
Procedure, shortened: as §1

NCI-H1915 = system: NCI-H1915
Procedure, shortened: as §1

NCI-H647 = system: NCI-H647
Procedure, shortened: as §1

PC-14 = system: PC-14
Procedure, shortened: as §1

RERF-LC-KJ = system: RERF-LC-KJ
Procedure, shortened: as §1

NCI-H650 = system: NCI-H650
Procedure, shortened: as §1

CCN(CC)CCCCNc1ncc2cc(-c3cc(OC)cc(OC)c3)c(NC(=O)NC(C)(C)C)nc2n1 + CS(=O)(=O)CCNCc1ccc(-c2ccc3ncnc(Nc4ccc(OCc5cccc(F)c5)c(Cl)c4)c3c2)o1 [Lapatinib] (partner 2 µM)
relative viability (LC-2-ad; first compound 0.3162 µM): 1.12
relative viability (LC-2-ad; first compound 1 µM): 0.917
relative viability (NCI-H1666; first compound 0.01 µM): 0.819
relative viability (NCI-H1666; first compound 0.03162 µM): 0.62
relative viability (NCI-H1666; first compound 0.1 µM): 0.604
relative viability (NCI-H1666; first compound 0.3162 µM): 0.684
relative viability (NCI-H1666; first compound 1 µM): 0.498
relative viability (LCLC-97TM1; first compound 0.03162 µM): 0.958
relative viability (LCLC-97TM1; first compound 0.1 µM): 1.13
relative viability (LCLC-97TM1; first compound 0.3162 µM): 0.923
relative viability (LCLC-97TM1; first compound 1 µM): 1.12
relative viability (NCI-H23; first compound 0.01 µM): 1.09
relative viability (NCI-H23; first compound 0.03162 µM): 1.12
relative viability (NCI-H23; first compound 0.1 µM): 1.36
relative viability (NCI-H23; first compound 0.3162 µM): 1.1
relative viability (NCI-H23; first compound 1 µM): 0.961
relative viability (NCI-H520; first compound 0.01 µM): 1.07
relative viability (NCI-H520; first compound 0.03162 µM): 0.946
relative viability (NCI-H520; first compound 0.1 µM): 1.11
relative viability (NCI-H520; first compound 0.3162 µM): 0.792
relative viability (NCI-H520; first compound 1 µM): 0.308
relative viability (HCC-827; first compound 0.01 µM): 0.214
relative viability (HCC-827; first compound 0.03162 µM): 0.206
relative viability (HCC-827; first compound 0.1 µM): 0.177
relative viability (HCC-827; first compound 0.3162 µM): 0.177
relative viability (HCC-827; first compound 1 µM): 0.172
relative viability (NCI-H1915; first compound 0.01 µM): 1.1
relative viability (NCI-H1915; first compound 0.03162 µM): 1.03
relative viability (NCI-H1915; first compound 0.1 µM): 0.775
relative viability (NCI-H1915; first compound 0.3162 µM): 1.1
relative viability (NCI-H1915; first compound 1 µM): 0.971
relative viability (NCI-H647; first compound 0.01 µM): 1.22
relative viability (NCI-H647; first compound 0.03162 µM): 1.25
relative viability (NCI-H647; first compound 0.1 µM): 1.28
relative viability (NCI-H647; first compound 0.3162 µM): 1.48
relative viability (NCI-H647; first compound 1 µM): 0.493
relative viability (PC-14; first compound 0.01 µM): 0.318
relative viability (PC-14; first compound 0.03162 µM): 0.373
relative viability (PC-14; first compound 0.1 µM): 0.391
relative viability (PC-14; first compound 0.3162 µM): 0.362
relative viability (PC-14; first compound 1 µM): 0.237
relative viability (RERF-LC-KJ; first compound 0.01 µM): 0.854
relative viability (RERF-LC-KJ; first compound 0.03162 µM): 0.893
relative viability (RERF-LC-KJ; first compound 0.1 µM): 0.907
relative viability (RERF-LC-KJ; first compound 0.3162 µM): 0.949
relative viability (RERF-LC-KJ; first compound 1 µM): 0.879
relative viability (NCI-H650; first compound 0.01 µM): 0.988
relative viability (NCI-H650; first compound 0.03162 µM): 0.944
relative viability (NCI-H650; first compound 0.1 µM): 1.06
relative viability (NCI-H650; first compound 0.3162 µM): 1.18
relative viability (NCI-H650; first compound 1 µM): 0.734
